# ChEMBL document CHEMBL1141602, “Chemical library and structure-activity relationships of 11-demethyl-12-oxo calanolide A analogues as anti-HIV-1 agents” (J Med Chem, 2008)
# Columns and labels:
# HOS = assay: Toxicity in CD4 expressing HOS cells at 10 uM; type: cell-based; conditions: human
# [1] = tested on: Human immunodeficiency virus 1; assay: Antiviral activity against HIV1 at 1.0 uM; type: functional
# [2] = Therapeutic index, ratio of IC50 for HOS cells to EC50 for human HIV1; type: cell-based; conditions: read-out: Ratio IC50/EC50
# [3] = tested on: Human immunodeficiency virus 1; assay: Antiviral activity against HIV1; type: functional, organism-based
# [4] = tested on: Mycobacterium tuberculosis; assay: Antimicrobial activity against Mycobacterium tuberculosis; type: functional
SMILES,Activity (HOS) [%],inhibition at 1 µM [1] [%],also measured
CCCCc1cc(=O)oc2c3c(c4c(c12)OC(c1ccccc1)C=C4)OC(C)CC3=O (stereo unspecified),10,96.4,
CCCc1cc(=O)oc2c3c(c4c(c12)OC(C)(C)C=C4)OC(C)CC3=O (racemic),,73.1,
CCCc1cc(=O)oc2c3c(c4c(c12)OC(C)(C)C=C4)OC(c1ccccc1)CC3=O (stereo unspecified),< 10,62.7,
CCc1c(F)c(=O)oc2c3c(c4c(c12)OC(C)C=C4)OC(C)CC3=O (stereo unspecified),,39.5,
CCCCCC1CC(=O)c2c(c3c(c4c(CCC)cc(=O)oc24)OC(C)(C)C=C3)O1 (stereo unspecified),< 10,46.4,
"CCCc1cc(=O)oc2c3c(c4c(c12)OC(C)(C)C=C4)OC(C)(C)CC3=O [114, 10,10-DIMETHYL-11-DEMETHYL-12-OXO CALANOLIDE A]",,68.3,selectivity ratio [2]: 47; EC50 [3]: 640 nM
C/C=C/C1C=Cc2c3c(c4oc(=O)cc(CCC)c4c2O1)C(=O)C(C)CO3 (stereo unspecified),,37.8,
C/C=C/C1C=Cc2c3c(c4oc(=O)c(F)c(CC)c4c2O1)C(=O)CC(C)O3 (stereo unspecified),,46.2,
CCCc1cc(=O)oc2c3c(c4c(c12)OC(CCC)C=C4)OC(C)CC3=O (stereo unspecified),,54.1,
CCCc1cc(=O)oc2c3c(c4c(c12)OC(C)(C)C=C4)OC(CCC)CC3=O (stereo unspecified),< 10,61.9,selectivity ratio [2]: 102; EC50 [3]: 32.5 nM
CCCC1C=Cc2c3c(c4oc(=O)cc(CC)c4c2O1)C(=O)CC(C)O3 (stereo unspecified),10,97,
CCCCC1C=Cc2c3c(c4oc(=O)cc(CCC)c4c2O1)C(=O)C(C)CO3 (stereo unspecified),< 10,35.2,
CCCCc1cc(=O)oc2c3c(c4c(c12)OC(C)C=C4)OC(C)CC3=O (stereo unspecified),,75.4,
CC1CC(=O)c2c(c3c(c4c(-c5ccc([N+](=O)[O-])cc5)cc(=O)oc24)OC(C)(C)C=C3)O1 (stereo unspecified),,51.9,
CCCc1c(Cl)c(=O)oc2c3c(c4c(c12)OC(c1ccccc1)C=C4)OC(C)CC3=O (stereo unspecified),> 80,96.3,
CC1CC(=O)c2c(c3c(c4c(CN5CCN(C)CC5)cc(=O)oc24)OC(C)(C)C=C3)O1 (stereo unspecified),,48.3,
CCCc1cc(=O)oc2c3c(c4c(c12)OC(C)C=C4)OCC(C)C3=O (stereo unspecified),10,62.4,
CCCc1cc(=O)oc2c3c(c4c(c12)OC(c1ccccc1[N+](=O)[O-])CC4OCC)OC(C)CC3=O (stereo unspecified),< 10,61,
CCCc1cc(=O)oc2c3c(c4c(c12)OC(C)(C)C=C4)O[C@H]1CCCC[C@@H]1C3=O (relative stereo),< 10,40,
C/C=C/C1C=Cc2c3c(c4oc(=O)cc(CC)c4c2O1)C(=O)CC(C)O3 (stereo unspecified),,56.4,
CCCc1cc(=O)oc2c3c(c4c(c12)OC(c1ccccc1[N+](=O)[O-])C=C4)OC(C)CC3=O (stereo unspecified),,52.6,
CCCCC1C=Cc2c3c(c4oc(=O)cc(CC)c4c2O1)C(=O)CC(C)O3 (stereo unspecified),10,96.7,
CCCc1cc(=O)oc2c3c(c4c(c12)OC(C)(C)C=C4)OC(CBr)CC3=O (stereo unspecified),,93.5,selectivity ratio [2]: > 10500; EC50 [3]: 2.85 nM

SMILES,Activity (HOS) [%],inhibition at 1 µM [1] [%],also measured
CCCCC1C=Cc2c3c(c4oc(=O)cc(CCC(F)(F)F)c4c2O1)C(=O)CC(C)O3 (stereo unspecified),,53.6,
CCCc1cc(=O)oc2c3c(c4c(c12)OC(c1ccccc1)C=C4)OCC(C)C3=O (stereo unspecified),< 10,,
CCCc1cc(=O)oc2c3c(c4c(c12)OC(C)(C)C=C4)OCC(C)C3=O (stereo unspecified),10,38.9,
CCc1cc(=O)oc2c3c(c4c(c12)OC(C)(C)C=C4)OC(C)CC3=O (stereo unspecified),,73.2,selectivity ratio [2]: > 1000; EC50 [3]: 270 nM
CCCc1c(F)c(=O)oc2c3c(c4c(c12)OCC(C)=C4)OC(C)CC3=O (stereo unspecified),,47.1,
CCCc1c(F)c(=O)oc2c3c(c4c(c12)OC(C)(C)C=C4)OC(C)CC3=O (stereo unspecified),10,45.3,
CCCc1c(Cl)c(=O)oc2c3c(c4c(c12)OCC(C)=C4)OC(C)CC3=O (stereo unspecified),,49.1,
CCCc1c(Cl)c(=O)oc2c3c(c4c(c12)OC(C)(C)C=C4)OC(C)CC3=O (stereo unspecified),,68.1,selectivity ratio [2]: 243; EC50 [3]: 370 nM
CCc1cc(=O)oc2c3c(c4c(c12)OC(C)C=C4)OC(C)CC3=O (stereo unspecified),,57.4,
CCc1c(F)c(=O)oc2c3c(c4c(c12)OC(C)(C)C=C4)OC(C)CC3=O (stereo unspecified),10,,
CCCc1c(Cl)c(=O)oc2c3c(c4c(c12)OCC(C)C4OCC)OC(C)CC3=O (stereo unspecified),,51.7,
CCCc1cc(=O)oc2c1c1c(c3occc(=O)c32)C=CC(C)(C)O1,,64.9,
CCc1cc(=O)oc2c3c(c4c(c12)OC(c1ccccc1)C=C4)OC(C)CC3=O (stereo unspecified),10,96.4,
CCCc1cc(=O)oc2c3c(c4c(c12)OC(C)(C)C=C4)O[C@@H]1CCCC[C@@H]1C3=O (relative stereo),< 10,59.3,
CCCc1c(Cl)c(=O)oc2c3c(c4c(c12)OC(C)C=C4)OC(C)CC3=O (stereo unspecified),,55.7,
COc1cc(-c2cc(=O)oc3c4c(c5c(c23)OC(C)(C)C=C5)OC(C)CC4=O)cc(OC)c1OC (stereo unspecified),,58,
C/C=C/C1C=Cc2c3c(c4oc(=O)c(Cl)c(CCC)c4c2O1)C(=O)CC(C)O3 (stereo unspecified),,57.3,
CCCc1cc(=O)oc2c3c(c4c(c12)OC(C)(C)C=C4)O[C@H](C)[C@@H](C)[C@@H]3O [CALANOLIDE A],,,MIC [4]: 3.13 µg/mL; EC50 [3]: 100 nM
CC1CC(=O)c2c(c3c(c4c5c(c(=O)oc24)CCCC5)OC(C)(C)C=C3)O1 (stereo unspecified),,67,
CCCc1cc(=O)oc2c3c(c4c(c12)OC(C)(C)C=C4)OC(C)CC3O (racemic),,,EC50 [3]: 310 nM
CC1CC(=O)c2c(c3c(c4c(CCC(F)(F)F)cc(=O)oc24)OC(c2ccccc2)C=C3)O1 (stereo unspecified),,47.6,
CCCc1cc(=O)oc2c3c(c4c(c12)OC(C)(C)C=C4)OC(c1ccc(C)cc1)CC3=O (stereo unspecified),,57,
